The results in this text go back to patent US20210172002A1, “DETECTING CELL VITALITY” (THE UNIVERSITY OF WARWICK, priority 2018, published 2021).

In one assay the test system is B. subtilis. The experiment in a line: Fluorescence response to an electric field in a mixed culture in the presence of vancomycin (FIG. 6). The assay is classed as cell-based, Bacillus subtilis. The conditions noted are these: vancomycin treated B. subtilis cells in mixed culture with E. coli; trace 601 of FIG. 6. From the text:
(§1) In an experimental setup, bacterial cells were inoculated on agarose pads and placed on the electrode surface, enabling monitoring of cells at single-cell resolution by microscopy. The membrane potential dynamics of cells was monitored using the fluorescent Nernstian indicator dye, Thioflavin T (ThT), which has been used extensively with bacteria.
The sample (shown in FIG. 3) was subjected to alternating 3V pulses at a frequency of 100 Hz for 2.5 seconds. The mean response 501 of ten UV-treated cells is shown in FIG. 5 alongside the mean response 502 of ten non-UV-treated cells.
(§2) In the mixed culture. […] The presence of E. coli or other coliforms could therefore be confirmed through fluorescence analysis of a sample treated with a selective antibiotic such as vancomycin.

The next assay concerns E. coli. The assay is described as above. As to conditions: E. coli cells in mixed culture with B. subtilis in the presence of vancomycin; trace 602 of FIG. 6. It counts as cell-based, Escherichia coli.
From the text: as §1
When a series of electrical pulses (±1.5 V AC 0.1 kHz for 2.5 seconds) were applied to E. coli (K12 strain) cells placed in the electrode gaps, the pulses caused hyperpolarization (seen by an increase of ThT fluorescence signal) in vital cells. FIG. 3 illustrates the effect of applying an electric field across a sample 304 as viewed between a pair of opposing electrodes 301, 302 in an apparatus of the type illustrated in FIG. 1. […] An electric field was then applied, and the image shown represents the difference in fluorescence over a period of time after the application of the electric field. […] This provides a clear indication that the change in fluorescence is an indication of the vitality of cells within the sample.
as §2

`CN[C@H](CC(C)C)C(=O)N[C@H]1C(=O)N[C@@H](CC(N)=O)C(=O)N[C@H]2C(=O)N[C@H]3C(=O)N[C@H](C(=O)N[C@H](C(=O)O)c4cc(O)cc(O)c4-c4cc3ccc4O)[C@H](O)c3ccc(c(Cl)c3)Oc3cc2cc(c3O[C@@H]2O[C@H](CO)[C@@H](O)[C@H](O)[C@H]2O[C@H]2C[C@](C)(N)[C@H](O)[C@H](C)O2)Oc2ccc(cc2Cl)[C@H]1O` [vancomycin]: the “log of a fluorescent response (membrane potential change)” value in the assay with B. subtilis is “depolarization”; with E. coli, “hyperpolarized”.
